In US9650379B2 (CHONG KUN DANG PHARMACEUTICAL CORP., priority 2013, dated 2017):

How the values were obtained:
HDAC1 = molecular target: T1, HDAC1 (Homo sapiens, UniProt Q13547); experiment: Inhibition of HDAC1 activity (HDAC1 fluorimetric drug discovery assay kit); format: biochemical; details: test concentrations 100, 1000 and 10000 nM; 37° C., 60 minutes
T1 construct: purchased Enzolifesciences BML-AK511
Procedure: (§1) Assays were performed using a HDAC1 fluorimetric drug discovery assay kit (Enzolifesciences: BML-AK511) and a HDAC6 human recombinant (Calbiochem: 382180). The assay mixture of the kit was treated with a test compound at concentrations of 100, 1000 and 10000 nM for HDAC1 assay and concentrations of 0.1, 1, 10, 100 and 1000 nM for HDAC6 assay. The treated assay mixture was allowed to react at 37° C. for 60 minutes, and then was treated with a developer and allowed to stand at 37° C. for 30 minutes, followed by quantification of the fluorescence.

HDAC6 human recombinant = molecular target: T2, HDAC6 human recombinant (Homo sapiens, UniProt Q9UBN7); experiment: Inhibition of HDAC6 activity (fluorimetric assay); format: biochemical; details: test concentrations 0.1, 1, 10, 100 and 1000 nM; 37° C., 60 minutes
T2 construct: purchased Calbiochem 382180
T2 sequence (Q9UBN7 1-1215): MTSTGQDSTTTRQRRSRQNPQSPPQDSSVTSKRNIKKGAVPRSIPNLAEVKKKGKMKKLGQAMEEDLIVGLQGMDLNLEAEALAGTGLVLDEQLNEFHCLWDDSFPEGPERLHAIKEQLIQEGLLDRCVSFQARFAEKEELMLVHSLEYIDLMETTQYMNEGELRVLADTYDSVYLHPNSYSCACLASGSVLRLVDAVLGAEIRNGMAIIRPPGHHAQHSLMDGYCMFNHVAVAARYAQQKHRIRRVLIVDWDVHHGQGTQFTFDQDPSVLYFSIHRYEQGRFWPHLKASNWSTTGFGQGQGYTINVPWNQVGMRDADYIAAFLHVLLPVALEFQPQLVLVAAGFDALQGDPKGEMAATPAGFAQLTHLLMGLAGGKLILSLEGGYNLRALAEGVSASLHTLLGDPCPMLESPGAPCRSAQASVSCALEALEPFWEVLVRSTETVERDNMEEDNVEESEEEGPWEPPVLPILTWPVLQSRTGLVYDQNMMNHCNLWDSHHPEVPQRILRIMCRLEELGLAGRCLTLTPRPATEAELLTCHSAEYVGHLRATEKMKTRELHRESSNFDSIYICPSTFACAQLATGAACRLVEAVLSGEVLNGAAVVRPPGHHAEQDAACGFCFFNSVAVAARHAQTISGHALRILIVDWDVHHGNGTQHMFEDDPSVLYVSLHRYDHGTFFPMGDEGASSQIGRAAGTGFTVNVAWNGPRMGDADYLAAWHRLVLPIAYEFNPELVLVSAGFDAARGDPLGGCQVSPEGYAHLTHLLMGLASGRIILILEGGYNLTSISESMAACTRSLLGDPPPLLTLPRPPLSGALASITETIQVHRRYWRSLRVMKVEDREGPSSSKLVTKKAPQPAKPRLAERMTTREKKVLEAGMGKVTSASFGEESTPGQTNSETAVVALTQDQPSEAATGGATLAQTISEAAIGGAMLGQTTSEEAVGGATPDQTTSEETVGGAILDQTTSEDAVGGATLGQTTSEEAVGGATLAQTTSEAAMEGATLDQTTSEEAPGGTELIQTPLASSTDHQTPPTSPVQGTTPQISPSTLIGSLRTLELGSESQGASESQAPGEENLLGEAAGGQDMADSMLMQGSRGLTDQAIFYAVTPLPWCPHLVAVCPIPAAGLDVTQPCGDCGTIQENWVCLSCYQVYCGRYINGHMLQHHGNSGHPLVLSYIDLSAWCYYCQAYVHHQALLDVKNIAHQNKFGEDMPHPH
Procedure: as §1

T1 sequence (Q13547 whole entry): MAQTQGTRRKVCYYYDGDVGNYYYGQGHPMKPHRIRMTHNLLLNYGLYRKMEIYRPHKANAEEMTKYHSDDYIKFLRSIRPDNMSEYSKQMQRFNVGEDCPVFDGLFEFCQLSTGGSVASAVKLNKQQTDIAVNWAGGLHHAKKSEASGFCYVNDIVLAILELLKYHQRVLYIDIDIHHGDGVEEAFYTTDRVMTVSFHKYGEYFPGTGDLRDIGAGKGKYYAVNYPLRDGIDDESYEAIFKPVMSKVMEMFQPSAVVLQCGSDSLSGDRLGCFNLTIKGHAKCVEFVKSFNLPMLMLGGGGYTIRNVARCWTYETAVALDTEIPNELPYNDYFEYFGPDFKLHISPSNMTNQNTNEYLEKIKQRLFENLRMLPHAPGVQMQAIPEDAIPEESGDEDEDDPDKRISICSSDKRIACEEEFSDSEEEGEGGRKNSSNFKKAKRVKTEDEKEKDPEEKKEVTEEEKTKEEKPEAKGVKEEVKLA

Compound | IC50 (HDAC1) [nM] | IC50 (HDAC6 human recombinant) [nM]
CC(C)(C)OC(=O)N1CC=C(c2cnc3ccn(Cc4ccc(C(=O)NO)cc4)c3c2)CC1 [Compound 786, tert-butyl 4-(1-(4-(hydroxycarbamoyl)benzyl)-1H-pyrrolo[3,2-b]pyridin-6-yl)-5,6-dihydropyridine-1(2H)-carboxylate] | 620 | 5.7
COc1ccc(CN2CC3(CCN(c4ccnc5c4ccn5Cc4ccc(C(=O)NO)cc4)CC3)C2)cc1 [Compound 1023, N-hydroxy-4-((4-(2-(4-methoxybenzyl)-2,7-diazaspiro[3.5]nonan-7-yl)-1H-pyrrolo[2,3-b]pyridin-1-yl)methyl)benzamide] | 560 | 3.3
CCN1CCN(c2ccnc3c2ccn3Cc2ccc(C(=O)NO)cc2)CC1 [Compound 223, 4-((4-(4-ethylpiperazin-1-yl)-1H-pyrrolo[2,3-b]pyridin-1-yl)methyl)-N-hydroxybenzamide] | 380 | 7
CN1CCN(Cc2ccc(CN3CCC(c4cnc5c(ccn5Cc5ccc(C(=O)NO)cc5)c4)CC3)cc2)CC1 [Compound 877, N-hydroxy-4-((5-(1-(4-((4-methylpiperazin-1-yl)methyl)benzyl)piperidin-4-yl)-1H-pyrrolo[2,3-b]pyridin-1-yl)methyl)benzamide] | 770 | 8.7
O=C(NO)c1ccc(Cn2ccc3cc(-c4cnc(O)nc4)cnc32)cc1 [Compound 687, N-hydroxy-4-((5-(2-hydroxypyrimidin-5-yl)-1H-pyrrolo[2,3-b]pyridin-1-yl)methyl)benzamide] | 3230 | 61
CN1CCN(Cc2cccc(-c3ccnc4c3ccn4Cc3ccc(C(=O)NO)cc3)c2)CC1 [Compound 799, N-hydroxy-4-((4-(3-((4-methylpiperazin-1-yl)methyl)phenyl)-1H-pyrrolo[2,3-b]pyridin-1-yl)methyl)benzamide] | 570 | 3.8
O=C(NO)c1ccc(Cn2ccc3c(-c4cccc(CN5CCOCC5)c4)ccnc32)cc1 [Compound 761, N-hydroxy-4-((4-(3-(morpholinomethyl)phenyl)-1H-pyrrolo[2,3-b]pyridin-1-yl)methyl)benzamide] | 430 | 9
O=C(NO)c1ccc(Cn2ccc3cc(C4CCN(Cc5ccc(-n6ccnc6)cc5)CC4)cnc32)cc1 [Compound 873, 4-((5-(1-(4-(1H-imidazol-1-yl)benzyl)piperidin-4-yl)-1H-pyrrolo[2,3-b]pyridin-1-yl)methyl)-N-hydroxybenzamide] | 760 | 16.5
O=C(O)CN1CCC(c2ccnc3c2ccn3Cc2ccc(C(=O)NO)cc2)CC1 [Compound 917, 2-(4-(1-(4-(hydroxycarbamoyl)benzyl)-1H-pyrrolo[2,3-b]pyridin-4-yl)piperidin-1-yl)acetic acid] | 780 | 5.8
CC1(C)CC=C(c2cnc3c(ccn3Cc3ccc(C(=O)NO)cc3)c2)CC1 [Compound 649] | 7050 | 93
O=C(NO)c1ccc(Cn2ccc3cc(C4CCN(Cc5ccc(C(F)(F)F)cc5)CC4)cnc32)cc1 [Compound 872, N-hydroxy-4-((5-(1-(4-(trifluoromethyl)benzyl)piperidin-4-yl)-1H-pyrrolo[2,3-b]pyridin-1-yl)methyl)benzamide] | 6340 | 165
O=C(NO)c1ccc(Cn2ccc3cc(C4CCN(Cc5cccc(C(F)(F)F)c5)CC4)cnc32)cc1 [Compound 871, N-hydroxy-4-((5-(1-(3-(trifluoromethyl)benzyl)piperidin-4-yl)-1H-pyrrolo[2,3-b]pyridin-1-yl)methyl)benzamide] | 3240 | 92.7
CC(C)(C)OC(=O)N1CCN(c2ccnc3c2ccn3Cc2ccc(C(=O)NO)cc2)CC1 [Compound 212] | 890 | 14
O=C(NO)c1ccc(Cn2ccc3cc(C4CCN(C(=O)c5cccc(F)c5)CC4)cnc32)cc1 [Compound 831, 4-((5-(1-(3-fluorobenzoyl)piperidin-4-yl)-1H-pyrrolo[2,3-b]pyridin-1-yl)methyl)-N-hydroxybenzamide] | 1220 | 7
